The values that follow come from patent US20210403465A1, “QUINAZOLINYL-INDAZOLE DERIVATIVES AND THEIR USE AS INHIBITORS OF HUMAN IMMUNODEFICIENCY VIRUS REPLICATION” (ViiV HEALTHCARE UK (NO.5) LIMITED, priority 2018, published 2021).

Series [1] in a line: Compound cytotoxicity, XTT-based colorimetric assay. The series is classed as cell-based. As to conditions: human; uninfected MT2 cells, day 4, XTT. On the procedure: Compound cytotoxicity and the corresponding CC50 values were determined using the same protocol as described in the antiviral assay except that uninfected cells were used. Cytotoxicity was assessed on day 4 in uninfected MT2 cells by using a XTT (2,3-bis[2-Methoxy-4-nitro-5-sulfophenyl]-2H-tetrazolium-5-carboxyanilide inner salt)-based colorimetric assay (Sigma-Aldrich, St Louis, Mo.).

In series [2] the test system is recombinant NL4-3 virus (Renilla luciferase) in MT-2 cells. Nature of the series: HIV cell culture assay (antiviral activity, luciferase readout in MT-2 cells). Format: cell-based. As to conditions: NL43. On the procedure:
HIV cell culture assay—MT-2 cells, 293T cells and the proviral DNA clone of NL4-3 virus were obtained from the NIH AIDS Research and Reference Reagent Program. MT-2 cells were propagated in RPMI 1640 media supplemented with 10% heat inactivated fetal bovine serum (FBS), […]. The 293T cells were propagated in DMEM media supplemented with 10% heat inactivated FBS, […]. A recombinant NL4-3 proviral clone, in which a section of the nef gene was replaced with the Renilla luciferase gene, was used to make the reference virus used in these studies. The recombinant virus was prepared through transfection of the recombinant NL4-3 proviral clone into 293T cells using Transit-293 Transfection Reagent from Mirus Bio LLC (Madison, Wis.). Supernatant was harvested after 2-3 days and the amount of virus present was titered in MT-2 cells using luciferase enzyme activity as a marker by measuring luciferase enzyme activity. Luciferase was quantitated using the EnduRen Live Cell Substrate from Promega (Madison, Wis.). Antiviral activities of compounds toward the recombinant virus were quantified by measuring luciferase activity in MT-2 cells infected for 4-5 days with the recombinant virus in the presence of serial dilutions of the compound.
The 50% effective concentration (EC50) was calculated by using the exponential form of the median effect equation where (Fa)=1/[1+(ED50/drug conc.)m] (Johnson V A, Byington R T. Infectivity Assay. In Techniques in HIV Research. ed. Aldovini A, Walker B D. 71-76. New York: Stockton Press. 1990). The 50% inhibitory concentration (EC50) was calculated by using the exponential form of the median effect equation where percent inhibition=1/[1+(EC50/drug concentration)m], where m is a parameter that reflects the slope of the concentration-response curve.

Molecules are shown by their SMILES.

With `Cn1nc(NS(C)(=O)=O)c2c(Cl)ccc(-n3c([C@H](Cc4cc(F)cc(F)c4)NC(=O)Cn4nc(C(F)F)c5c4C(F)(F)[C@@H]4C[C@H]54)nc4cc(OC5CCOCC5)ccc4c3=O)c21` (atropisomer, axis not shown; (P)) [Example 10, N—((S)-1-((3P)-3-(4-chloro-1-methyl-3-(methylsulfonamido)-1H-indazol-7-yl)-4-oxo-7-((tetrahydro-2H-pyran-4-yl)oxy)-3,4-dihydroquinazolin-2-yl)-2-(3,5-difluorophenyl)ethyl)-2-((3bS,4aR)-3-(difluoromethyl)-5,5-difluoro-3b,4,4a,5-tetrahydro-1H-cyclopropa[3,4]cyclopenta[1,2-c]pyrazol-1-yl)acetamide], in series [1], the CC50 at 4 days is greater than 1000 nM. The EC50 in series [2] is 0.036 nM.

The compound `Cn1nc(NS(C)(=O)=O)c2c(Cl)ccc(-n3c([C@H](Cc4cc(F)cc(F)c4)NC(=O)Cn4nc(C(F)F)c5c4C(F)(F)[C@@H]4C[C@H]54)nc4cc(OCCN5CCS(=O)(=O)CC5)ccc4c3=O)c21` (atropisomer, axis not shown; (P)) [Example 4, N—((S)-1-((3P)-3-(4-chloro-1-methyl-3-(methylsulfonamido)-1H-indazol-7-yl)-7-(2-(1,1-dioxidothiomorpholino)ethoxy)-4-oxo-3,4-dihydroquinazolin-2-yl)-2-(3,5-difluorophenyl)ethyl)-2-((3bS,4aR)-3-(difluoromethyl)-5,5-difluoro-3b,4,4a,5-tetrahydro-1H-cyclopropa[3,4]cyclopenta[1,2-c]pyrazol-1-yl)acetamide] returned a 50% cytotoxic concentration (CC50) at 4 days in series [1] greater than 1000 nM. Besides, in series [2], the EC50 was determined as 0.08 nM.

In series [1], `Cn1nc(NS(C)(=O)=O)c2c(Cl)ccc(-n3c([C@H](Cc4cc(F)cc(F)c4)NC(=O)Cn4nc(C(F)F)c5c4C(F)(F)[C@@H]4C[C@H]54)nc4cc(OCc5cncnc5)ccc4c3=O)c21` (atropisomer, axis not shown; (P)) [Example 11, N—((S)-1-((3P)-3-(4-chloro-1-methyl-3-(methylsulfonamido)-1H-indazol-7-yl)-4-oxo-7-(pyrimidin-5-ylmethoxy)-3,4-dihydroquinazolin-2-yl)-2-(3,5-difluorophenyl)ethyl)-2-((3bS,4aR)-3-(difluoromethyl)-5,5-difluoro-3b,4,4a,5-tetrahydro-1H-cyclopropa[3,4]cyclopenta[1,2-c]pyrazol-1-yl)acetamide] showed a cytotoxic concentration (CC50) at 4 days greater than 1000 nM. In addition, in series [2], the EC50 is 0.066 nM.

In series [1], `Cn1nc(NS(C)(=O)=O)c2c(Cl)ccc(-n3c([C@H](Cc4cc(F)cc(F)c4)NC(=O)Cn4nc(C(F)F)c5c4C(F)(F)[C@@H]4C[C@H]54)nc4cc(OCCOc5ccccc5)ccc4c3=O)c21` (atropisomer, axis not shown; (P)) [Example 5, N—((S)-1-((3P)-3-(4-chloro-1-methyl-3-(methylsulfonamido)-1H-indazol-7-yl)-4-oxo-7-(2-phenoxyethoxy)-3,4-dihydroquinazolin-2-yl)-2-(3,5-difluorophenyl)ethyl)-2-((3bS,4aR)-3-(difluoromethyl)-5,5-difluoro-3b,4,4a,5-tetrahydro-1H-cyclopropa[3,4]cyclopenta[1,2-c]pyrazol-1-yl)acetamide] registered a CC50 at 4 days greater than 1000 nM. The 50% effective concentration (EC50) in series [2] stood at 0.36 nM.

As to `Cn1nc(NS(C)(=O)=O)c2c(Cl)ccc(-n3c([C@H](Cc4cc(F)cc(F)c4)NC(=O)Cn4nc(C(F)F)c5c4C(F)(F)[C@@H]4C[C@H]54)nc4cc(OCC5CCCC5)ccc4c3=O)c21` (atropisomer, axis not shown; (P)) [Example 2, N—((S)-1-((3P)-3-(4-chloro-1-methyl-3-(methylsulfonamido)-1H-indazol-7-yl)-7-(cyclopentylmethoxy)-4-oxo-3,4-dihydroquinazolin-2-yl)-2-(3,5-difluorophenyl)ethyl)-2-((3bS,4aR)-3-(difluoromethyl)-5,5-difluoro-3b,4,4a,5-tetrahydro-1H-cyclopropa[3,4]cyclopenta[1,2-c]pyrazol-1-yl)acetamide], in series [1], the CC50 at 4 days was greater than 1000 nM. Besides, the EC50 in series [2] stood at 0.18 nM.

`Cn1nc(NS(C)(=O)=O)c2c(Cl)ccc(-n3c([C@H](Cc4cc(F)cc(F)c4)NC(=O)Cn4nc(C(F)F)c5c4C(F)(F)[C@@H]4C[C@H]54)nc4cc(OCCOC(F)F)ccc4c3=O)c21` (atropisomer, axis not shown; (P)) [Example 15, N—((S)-1-((3P)-3-(4-chloro-1-methyl-3-(methylsulfonamido)-1H-indazol-7-yl)-7-(2-(difluoromethoxy)ethoxy)-4-oxo-3,4-dihydroquinazolin-2-yl)-2-(3,5-difluorophenyl)ethyl)-2-((3bS,4aR)-3-(difluoromethyl)-5,5-difluoro-3b,4,4a,5-tetrahydro-1H-cyclopropa[3,4]cyclopenta[1,2-c]pyrazol-1-yl)acetamide] showed a cytotoxic concentration (CC50) at 4 days in series [1] greater than 500 nM. In addition, the EC50 in series [2] came out at 0.051 nM.

Regarding `Cn1nccc1CCOc1ccc2c(=O)n(-c3ccc(Cl)c4c(NS(C)(=O)=O)nn(C)c34)c([C@H](Cc3cc(F)cc(F)c3)NC(=O)Cn3nc(C(F)F)c4c3C(F)(F)[C@@H]3C[C@H]43)nc2c1` (atropisomer, axis not shown; (P)) [Example 7, N—((S)-1-((3P)-3-(4-chloro-1-methyl-3-(methylsulfonamido)-1H-indazol-7-yl)-7-(2-(1-methyl-1H-pyrazol-5-yl)ethoxy)-4-oxo-3,4-dihydroquinazolin-2-yl)-2-(3,5-difluorophenyl)ethyl)-2-((3bS,4aR)-3-(difluoromethyl)-5,5-difluoro-3b,4,4a,5-tetrahydro-1H-cyclopropa[3,4]cyclopenta[1,2-c]pyrazol-1-yl)acetamide], the CC50 at 4 days in series [1] was greater than 1000 nM. Further, in series [2], the half-maximal effective concentration (EC50) turned out to be 0.074 nM.

In series [1], `Cn1nc(NS(C)(=O)=O)c2c(Cl)ccc(-n3c([C@H](Cc4cc(F)cc(F)c4)NC(=O)Cn4nc(C(F)F)c5c4C(F)(F)[C@@H]4C[C@H]54)nc4cc(OCC5CCC5)ccc4c3=O)c21` (atropisomer, axis not shown; (P)) [Example 12, N—((S)-1-((3P)-3-(4-chloro-1-methyl-3-(methylsulfonamido)-1H-indazol-7-yl)-7-(cyclobutylmethoxy)-4-oxo-3,4-dihydroquinazolin-2-yl)-2-(3,5-difluorophenyl)ethyl)-2-((3bS,4aR)-3-(difluoromethyl)-5,5-difluoro-3b,4,4a,5-tetrahydro-1H-cyclopropa[3,4]cyclopenta[1,2-c]pyrazol-1-yl)acetamide] registered a cytotoxic concentration (CC50) at 4 days greater than 1000 nM. Besides, the EC50 in series [2] came out at 0.15 nM.
